The source of these data is patent US4610994A, “1,2,3-triazole anticonvulsant drugs” (priority 1984, dated 1986).

Series [1] relates to maximal electro-shock seizure (MES) and subcutaneous pentylenetetrazole (Metrazole) seizure threshold (scMet). Kind of series: Phase I anticonvulsant screening (MES test and scMet test). The class given is in vivo, mouse. To be noted: for protection: 300 mg/kg; for signs of neurological deficit: at effective dose levels (Class I) or 300 mg/kg (8, 13); for Anticonvulsant Activity Group Classification: mouse, MES and scMet tests, doses up to 300 mg/kg.

The format of series [2] is in vivo. To be noted: mice, subcutaneous.
Source text: (§1) The profile of anticonvulsant activity for each substance was established by five tests: one electrical and four chemical. The electrical test employed was the maximal electroshock seizure pattern test. […] Except for the sc Strych Test, these tests measure the ability of anticonvulsants to afford complete protection against threshold seizures induced by the subcutaneous injection of the CD97 of the convulsant agent.
Series [3] deals with subcutaneous Bicuculline seizures. Nature of the series: subcutaneous Bicuculline Seizure Threshold Test (sc Bic) in mice. To be noted: mice i.p., Compound 10 up to 300 mg/kg. Format: in vivo, mice (male albino, CF No. 1).
Procedure: (§2) All animals were allowed free access to both food (S/L Custom Lab Diet-7) and water, except when they were removed from their cages for the experimental procedure.
(§3) The drugs were administered either orally or intraperitoneally in a volume of 0.01 ml/g body weight in mice and 0.04 ml/10 g in rats. All tests were conducted at the previously determined time of peak drug effect.
as §1
(§4) All convulsants were administered subcutaneously into a loose fold of skin on the back of the neck in a volume of 0.01 ml/g body weight in mice; Metrazol was injected in a volume of 0.02 ml/10 g body weight in rats. The convulsant drugs were administered at the previously determined time of peak anticonvulsant action of the drug under study. […] Except for strychnine, absence of a five-second episode of clonic spasms (threshold seizure) was taken as protection. In the case of strychnine, complete abolition of the hindleg tonic extension was taken as protection.
In series [4] the test system is subcutaneous Picrotoxin seizures. Kind of series: subcutaneous Picrotoxin Seizure Threshold Test (sc Pic) in mice. The class given is in vivo, mice (male albino, CF No. 1). To be noted: mice i.p., Compound 10 up to 300 mg/kg.
Procedure: as §2, §3, §1, §4
The subject of series [5] is subcutaneous Strychnine seizures. The class given is in vivo, mice (male albino, CF No. 1). To be noted: mice i.p., Compound 10 up to 300 mg/kg.
Procedure: as §2, §3, §1, §4
The conditions of series [6]: mice.
Procedure: as §2, §3
(§5) The profile of toxicity for each test drug was established by the following procedures: Firstly, the minimal neurotoxic dose (TD50) was determined by the rotorod procedure at the time of peak neurotoxic effect. When a normal mouse is placed on a knurled rod one inch in diameter rotating at a speed of six rpm it can maintain its equilibrium for long periods of time. Neurological deficit is indicated by inability of the mouse to maintain its equilibrium for one minute in each of three trials on this rotating rod. Neurological deficit in rats is indicated by ataxia, loss of placing response and muscle tone.
For series [7], the system named is maximal electroshock seizures. Nature of the series: maximal electroshock seizure (MES) pattern test in mice. To be noted: for ED97 / MES ED50: mice; for ED97: MES; for TPE: test not specified.
Procedure: as §2, §3, §1
Series [8] relates to maximal electroshock seizures. Nature of the series: maximal electroshock seizure (MES) pattern test in rats.
Procedure: as §2, §3, §1
Series [9] concerns subcutaneous Metrazol seizures. Kind of series: subcutaneous Metrazol Seizure Threshold Test (sc Met) in mice. To be noted: mice; for ED97: sc Met.
Procedure: as §2, §3, §1, §4
In series [10] the test system is subcutaneous Metrazol seizures. Nature of the series: subcutaneous Metrazol Seizure Threshold Test (sc Met) in rats. To be noted: oral, sc Met.
Procedure: as §2, §3, §1, §4
The nature of series [11]: Phase III toxicity profile (overt signs and symptoms) in mice i.p. To be noted: for Profile of acute toxicity, 1 x TD50: 1TD50; for Profile of acute toxicity, 2 x TD50: 2TD50.
Procedure: (§6) The profile of toxicity for each test drug was established by the following procedures: Firstly, the minimal neurotoxic dose (TD50) was determined by the rotorod procedure at the time of peak neurotoxic effect. When a normal mouse is placed on a knurled rod one inch in diameter rotating at a speed of six rpm it can maintain its equilibrium for long periods of time. Neurological deficit is indicated by inability of the mouse to maintain its equilibrium for one minute in each of three trials on this rotating rod. […] The HD50 represents the median dose at which 50% of animals lose their righting reflex.
The nature of series [12]: minimal neurotoxicity (ataxia, loss of placing response and muscle tone) in rats. To be noted: rats, oral.
Procedure: as §2, §3, §5
Series [13] in a line: loss of righting reflex (HD50) in mice i.p. Also on record: species or system mice (male albino, CF No. 1). To be noted: mice, i.p., 95% confidence interval.
Procedure: as §6

Values joined by “and” are separate entries in the source; they are usually repeats but may differ in a detail not shown here. Identical values can stand only once. “Also recorded” adds a separate entry of the source. Like-named read-outs stand apart in the source and are kept apart here.

Turning to `Clc1ccc(-n2nncc2-c2ccncc2)cc1Cl` [Compound 8, 1-(3,4-Dichlorophenyl)-5-(4-pyridyl)-1H--1,2,3-triazole], in series [1], the protection came to 100%, the “signs of neurological deficit” value was “without any signs of neurological deficit” and the “Anticonvulsant Activity Group Classification” value is recorded as “II (Class II compounds show anticonvulsant activity at doses greater than 100 mg/kg or show activity at 100 mg/kg which is not reinforced by similar activity at 300 mg/kg)”.

For the compound `Fc1ccc(-n2nncc2-c2ccncc2)cc1` [Compound 4, 1-(p-Fluorophenyl)-5-(4-pyridyl)-1H--1,2,3-triazole], the “Anticonvulsant Activity Group Classification” value in [1] is reported as “II (Class II compounds show anticonvulsant activity at doses greater than 100 mg/kg or show activity at 100 mg/kg which is not reinforced by similar activity at 300 mg/kg)”.

Turning to `COc1ccc(-n2nncc2-c2ccncc2)cc1` [Compound 6, 1-(p-Anisyl)-5-(4-pyridyl)-1H--1,2,3-triazole], the “Anticonvulsant Activity Group Classification” value in [1] was “II (Class II compounds show anticonvulsant activity at doses greater than 100 mg/kg or show activity at 100 mg/kg which is not reinforced by similar activity at 300 mg/kg)”.

As for `CN1CCc2cc3c(cc2[C@H]1[C@@H]1OC(=O)c2c1ccc1c2OCO1)OCO3` [bicuculline], the “sc CD97” value in series [2] turned out to be 2.70 mg/kg.

Consider `FC(F)(F)c1ccc(-n2nncc2-c2cccnc2)cc1` [Compound 19, 1-(p-Trifluoromethylphenyl)-5-(3-pyridyl)-1H--1,2,3-triazole], for which the “Anticonvulsant Activity Group Classification” value in [1] is reported as “II (Class II compounds show anticonvulsant activity at doses greater than 100 mg/kg or show activity at 100 mg/kg which is not reinforced by similar activity at 300 mg/kg)”.

For `CCC1(c2ccccc2)C(=O)NC(=O)NC1=O` [Phenobarbital], the “effectiveness by the sc Bic test” value in series [3] was “effective by all four anticonvulsant tests”; in [3] (listed as phenobarbital), “effective by these tests”. Besides, the “effectiveness by the sc Pic test” value in series [4] is given as “effective by all four anticonvulsant tests”; in series [4] (listed as phenobarbital), “effective by these tests”. For the same compound, the results for the “effectiveness by the sc Strych test” value in [5] and in series [5] (listed as phenobarbital) were “had to be given in toxic doses in order to protect against this chemical convulsant” and “effective by these tests”, respectively. Also, the TD3 was 57 in [6] (i.p., MES); 57 in [6] (i.p., sc Met); 58 in [6] (oral, MES); 58 in series [6] (oral, sc Met); 14 in series [12] (MES); 14 in series [12] (sc Met). Besides, the ED97 in series [7] (i.p.) is 29; in series [7] (oral), 46; in [8] (Rattus norvegicus, po), 26 mg/kg; in [9] (i.p.), 27; in series [9] (oral) it was 38; in series [10], 34. Also, the TPE result in series [8] (rats p.o., test not specified) is given as “five”. Moreover, in series [11], the “Profile of acute toxicity, 1 x TD50” value is “Ataxia with in-”. Also, the “Profile of acute toxicity, 2 x TD50” value in series [11] is on record as “Ataxia with in-”.

With `Cc1cccc(-n2nncc2-c2ccncc2)c1` [Compound 17, 1-(m-Tolyl)-5-(4-pyridyl)-1H--1,2,3-triazole], the “Anticonvulsant Activity Group Classification” value in series [1] is given as “II (Class II compounds show anticonvulsant activity at doses greater than 100 mg/kg or show activity at 100 mg/kg which is not reinforced by similar activity at 300 mg/kg)”.

Take `c1ccc(-n2nncc2-c2ccncc2)cc1` [Compound 3, 1-Phenyl-5-(4-pyridyl)-1H--1,2,3-triazole]: in [1], the “signs of neurological deficit” value is “do not exhibit significant signs of neurological deficit”.

On to `Clc1ccc(-n2nncc2-c2ccccn2)cc1` [Compound 14, 1-(p-Chlorophenyl)-5-(2-pyridyl)-1H--1,2,3-triazole], for which the “signs of neurological deficit” value in series [1] is on record as “do not exhibit significant signs of neurological deficit”.

In the case of `Fc1ccc(-n2nncc2-c2cccnc2)cc1` [Compound 12, 1-(p-Fluorophenyl)-5-(3-pyridyl)-1H--1,2,3-triazole], in series [1], the “signs of neurological deficit” value is given as “do not exhibit significant signs of neurological deficit”.

With `Brc1ccc(-n2nncc2-c2ccccc2)cc1` [Compound 2, 1-(p-Bromophenyl)-5-phenyl-1H--1,2,3-triazole], the “signs of neurological deficit” value in [1] is reported as “do not exhibit significant signs of neurological deficit”.

In the case of `Clc1ccc(-n2nncc2-c2ccccc2)cc1` [Compound 1, 1-(p-Chlorophenyl)-5-phenyl-1H--1,2,3-triazole], the “signs of neurological deficit” value in series [1] is on record as “do not exhibit significant signs of neurological deficit”.

In the case of `O=C1C[C@@H]2OCC=C3CN4CC[C@]56c7ccccc7N1[C@H]5[C@H]2[C@H]3C[C@H]46` [strychnine], the “sc CD97” value in [2] was 1.20 mg/kg.

On to `Brc1ccc(-n2nncc2-c2cccnc2)cc1` [Compound 11, 1-(p-bromophenyl)-5-(3-pyridyl)-1H-1,2,3-triazole], for which the “signs of neurological deficit” value in series [1] is listed as “do not exhibit significant signs of neurological deficit”.

With `Clc1ccc(-n2nncc2-c2cccnc2)cc1Cl` [Compound 13, 1-(3,4-Dichlorophenyl)-5-(3-pyridyl)-1H--1,2,3-triazole], in [1], the protection amounted to 100%, the “signs of neurological deficit” value is “without any signs of neurological deficit” and the “Anticonvulsant Activity Group Classification” value is “II (Class II compounds show anticonvulsant activity at doses greater than 100 mg/kg or show activity at 100 mg/kg which is not reinforced by similar activity at 300 mg/kg)”.

As to `Cc1ccc(-n2nncc2-c2ccncc2)cc1` [Compound 5, 1-(p-Tolyl)-5-(4-pyridyl)-1H--1,2,3-triazole], the “Anticonvulsant Activity Group Classification” value in [1] is recorded as “II (Class II compounds show anticonvulsant activity at doses greater than 100 mg/kg or show activity at 100 mg/kg which is not reinforced by similar activity at 300 mg/kg)”.

Regarding picrotoxin, the “sc CD97” value in [2] came out at 3.15 mg/kg.

Consider `CCCC(CCC)C(=O)O` [Valproate], for which the “effectiveness by the sc Bic test” value in series [3] is on record as “effective by all four anticonvulsant tests; also recorded: effective by these tests”. Also, the “effectiveness by the sc Pic test” value in series [4] is “effective by all four anticonvulsant tests; also recorded: effective by these tests”. Also, in [5], the “effectiveness by the sc Strych test” value is recorded as “effective against strychnine in nontoxic doses; also recorded: effective by these tests”. For the same compound, the “HD50 (righting reflex)” value in series [13] is 885.53 mg/kg and 885.53(820.86-947.04) mg/kg. The TD50 in [13] (mouse, in vivo, ip, read-out: HD50 (righting reflex)) came out at 886 mg/kg. The TD3 in series [6] (i.p., MES) is given as 345; in series [6] (i.p., sc Met) it was 345; in [6] (oral, MES) it was 500; in [6] (oral, sc Met), 500; in [12] (MES), 115; in [12] (sc Met), 115. Besides, the figures for the TPE result in series [7] (mice i.p.) and in series [7] (mice p.o.) were “one-fourth” and “one to two”, respectively. Further, the ED97 came to 380 in series [7] (i.p.); 840 in series [7] (oral); 218 in series [9] (i.p.); 680 in series [9] (oral); 188 in [10]. Also, the “MES ED50” value was 271.66(246.97-337.89) mg/kg in series [7] (i.p., 95% confidence interval); 271.66 mg/kg in series [7] (i.p., 95% confidence interval, listed as valproate); 664.80 mg/kg in [7] (p.o.). Moreover, the “effectiveness by the sc Met test” value in series [9] (i.p.) is “effective by all four anticonvulsant tests”. The “sc Met ED50” value in series [9] (i.p., 95% confidence interval) is given as 148.59(122.64-177.02) mg/kg; in series [9] (p.o.), 388.31 mg/kg. Further, the “Profile of acute toxicity, 1 x TD50” value in series [11] is on record as “Mild ataxia”. In [11], the “Profile of acute toxicity, 2 x TD50” value is “Ataxia”. For the same compound, in [11] (4TD50), the “Profile of acute toxicity, 4 x TD50” value is “Both animals died”.
